In series [1] the test system is CEM-SS cells. Kind of series: CEM-SS MTT assay, cytotoxicity (Table I). The series is classed as cell-based, human. A general note: Tetrazolium dyes change colour on reduction, which living cells bring about.
In series [2] the test system is 2.2.15 cells. Nature of the series: Toxicity in 2.2.15 cells, neutral red dye uptake. The series is classed as cell-based, human. On the procedure:
Cells of 2.2.15 were grown to confluence in 96-well flat-bottomed tissue culture plates and treated with compounds (in 0.2 mL culture medium/well) as described above. Four concentrations of each compound were assayed, each in triplicate cultures, in 3- to 10-fold steps. Untreated control cultures were maintained on each 96-well plate. On each 96-well plate, wells containing no cells were used to correct for light scattering.

Series [3] relates to HCMV. Kind of series: HCMV semi-automated CPE-inhibition assay in human foreskin fibroblast cells. The series is classed as cell-based, human cytomegalovirus. Conditions: Table II; for EC50: Human betaherpesvirus 5, Fibroblast.
The test system of series [4] is HBV. Nature of the series: HBV replication in cultures of 2.2.15 cells, extracellular HBV virion DNA (primary assay). Conditions: for activity in primary assay (HBV virion): text summary of Table IV.
Experimental: Both intracellular and extracellular HBV DNA are analyzed in order to (i) allow for verification of compound efficacy and (ii) provide possible data on the target site in the HBV replication pathway for the compound from examination of the pattern of viral replicative forms. The culture medium is changed daily during the treatment period to (i) prevent the buildup of potentially toxic metabolites derived from test compounds and (ii) provide an analysis of HBV virion production during discrete 24-hour intervals which enables a quantitative comparison of any effect on virion production.
The analysis of HBV DNA is performed using blot hybridization techniques (Southern and slot blot) and [^32P]-labeled HBV-specific probes. HBV DNA levels are measured by comparison to known amounts of HBV DNA standards applied to every nitrocellulose membrane (gel or slot blot). An AMBIS beta scanner, which measures the radioactive decay of the hybridized probes directly from the nitrocellulose membranes, is used for the quantitative analysis. Standard curves, generated by multiple analyses, are used to correlate CPM measurements made by the beta scanner with relative levels of target HBV DNA. The levels of HBV virion DNA released into the culture medium are analyzed by a slot blot hybridization procedure.
The subject of series [5] is human foreskin fibroblast cells. Kind of series: Toxicity run with the HCMV assay, human foreskin fibroblast cells. The series is classed as cell-based. Conditions: Table II; for IC50: Homo sapiens, Fibroblast. On the procedure:
(§1) [table] […] The media from the wells is then aspirated and 2 mL of each drug concentration is then added to each well. The cells are then incubated in a CO2 incubator at 37° C. for 72 h. At the end of this time, the media-drug solution is removed and the cells washed. […] The cell-media mixture is then pipetted up and down vigorously to break up the cell suspension, and 0.2 mL of the mixture is added to 9.8 mL of Isoton III and counted using a Coulter Counter. Each sample is counted three times with three replicate wells per sample. The procedure for plating cells and adding drug is the same as for the MTT Assay. After drug addition, the plates are incubated for seven days in a CO2 incubator at 37° C. […] This is incubated in the CO2 incubator for one hour. The dye is aspirated and the cells are washed using a Nunc Plate Washer. […] The plates are rotated for 15 minutes and the optical densities are read at 550 nm on a plate reader.

Series [6] concerns HBV RI. Kind of series: HBV replication in 2.2.15 cells, intracellular DNA replication intermediates (secondary assay). Conditions: for EC50: read-out: HBV RI EC50; for EC90: read-out: HBV RI EC90.
The test system of series [7] is Raji or Daudi cells. Kind of series: Toxicity run with the EBV assay. The class given is cell-based, human. Conditions: Table II. An excerpt:
IC50 (50% inhibitory concentration) is the concentration required to inhibit cell proliferation by 50%

Series [8] deals with EBV. Nature of the series: EBV assay: superinfection of Raji or Daudi cells with P3HR-1, immunofluorescence for EA and VCA. The series is classed as cell-based, Epstein-Barr virus. Conditions: Table II. From the text: There are two prototypes of infectious EBV. One is exemplified by the virus derived from supernatant fluids of the P3HR-1cell line. This cell line produces nontransforming virus that causes the production of early antigen (EA) after primary infection or superinfection of B cell lines. The other prototype is exemplified by the B-95-8 virus. This virus immortalized cord blood lymphocytes and induced tumors in marmosets.
The virus used in our assays is P3HR-1.
Ramos is an exceptional B cell line derived from Burkitt's lymphoma tumor but containing no detectable EBV genome copies and is EBNA negative. Ramos/AW was obtained by in vitro infection of Ramos with the P3HR-1 virus and contains one resident EBV genome copy/cell. Raji is a Burkitt's lymphoma cell line containing 60 EBV genomes/cell, and will be the primary cell used for screening antiviral activity against EBV EA expression. Daudi is a low level producer that contains 152 EBV genome copies/cell. It spontaneously expresses EBV EA in 0.25%-0.5% of the cells. It will be used in follow-up studies to confirm activity. These cell lines respond to superinfection by EBV by expressing EA(D), EA(R), and VCA. All cell lines are maintained in RPMI-1640 medium supplemented by 10% FCS, L-glutamine and 100 μg/mL gentamicin. The cultures are fed twice weekly and the cell concentration adjusted to 3×10^5/mL. The cells are kept at 37° C. in a humidified atmosphere with 5% CO2.
Cells are infected with the P3HR-1 strain of EBV and the drugs to be tested are added after adsorption (45 minutes at 37° C.) and washing of the cell cultures. The cultures are incubated for two days in complete medium to allow viral gene expression. Following the 48 hr incubation period, the number of cells of each sample are counted and smears made. Monoclonal antibodies to the different EA components and VCA are then added to the cells incubated and washed. This is followed by a fluorescein conjugated rabbit anti-mouse Ig antibody; and the number of fluorescence positive cells in the smears are counted. The total number of cells in the cultures positive for EA or VCA are then calculated and compared.

The test system of series [9] is human foreskin fibroblast cells. Nature of the series: Toxicity run with the VZV assay, human foreskin fibroblast cells. Conditions: Table II. The class given is cell-based. As for the experimental part:
as §1

Series [10] relates to VZV. Nature of the series: VZV plaque reduction assay in human foreskin fibroblast cells. The series is classed as cell-based, varicella zoster virus. Conditions: Table II. On the procedure:
Two days prior to use, HFF cells are plated into six-well plates and incubated at 37° C. with 5% CO2 and 90% humidity. On the date of assay, the drug is made up at twice the desired concentration in 2x MEM and then serially diluted 1:5 in 2x MEM using six concentrations of drug. The initial starting concentration is usually 200 gg/mL down to 0.06 μg/mL. The virus to be used is diluted in MEM containing 10% FBS to a desired concentration which will give 20-30 plaques per well. The media is then aspirated from the wells and 0.2 mL of virus is added to each well in duplicate with 0.2 mL of media being added to drug toxicity wells. The plates are then incubated for one hour with shaking every fifteen minutes. After the incubation period, an equal amount of 1% agarose was added to an equal volume of each drug dilution. This will give final drug concentrations beginning with 100 μg/mL and ending with 0.03 μg/mL and a final agarose overlay concentration of 0.5%. The drug agarose mixture is applied to each well in 2 mL volume and the plates then incubated for three days, after which the cells were stained with a 1.5% solution of neutral red. At the end of 4-6hr incubation period, the stain is aspirated, and plaques counted using a stereomicroscope at lOx magnification.
The procedure is essentially the same as for the HSV plaque assay described above with two exceptions:
1. After addition of the drug, the plates are incubated for ten days.
2. On days three and six, an additional 1 mL overlay with equal amounts of 2x MEM and 1% agarose are added.
A general note: In a plaque reduction assay, fewer plaques than in the control indicate reduced infectivity or spread.

Series [11] has as its system HIV-1. Conditions: CEM-SS MTT assay.
In series [12] the test system is H112-2 HIV viral strain. Kind of series: In vitro MTT assay, isolate not pre-treated with AZT (Example 37, FIGS. 2). Conditions: H112-2 strain; FIGS. 2(a)-2(e).
Series [13] deals with G910-6 HIV viral strain. Kind of series: In vitro MTT assay, AZT-resistant isolate (Example 37, FIGS. 1). Conditions: G910-6 strain, FIGS. 1(a)-1(e).
Where [14] appears, read: Homo sapiens, Table II, read-out: HBV IC50.
Setting [15] is: Hepatitis B virus, read-out: HBV EC50.

In brackets after ≈: the same amount, converted by molar mass. Where two headings read alike, the source gives them in different places. Bounds are passed on as bounds.

What is called IC50 is the concentration at which inhibition is half-maximal. Broadly, the EC50 is the concentration at which the effect is half-maximal. The term EC90 denotes the concentration at which the effect reaches the 90% level. Consider `CCCc1cc(=O)oc2c3c(c4c(c12)OC(C)(C)C=C4)OC(C)C(C)(C)C3=O` (racemic) [(±)-15a, (±)-10,11-Dihydro-6,6,10,11,11-pentamethyl-4-propyl-2H,6H, 12H-benzo[1,2-b:3,4-b′:5,6-b″]tripyran-2,12-dione], for which the IC50 in [1] (Homo sapiens) is 19.3 µM; in [2] (setting [14]), 1990 µM; in [2] (Homo sapiens, Table IV, HBV RI columns, read-out: HBV RI IC50), 1790 µM; in series [2] (Homo sapiens, Table IV, HBV Virion columns, read-out: HBV Virion IC50), 1790 µM; in [5] it was greater than 100 µg/mL. The EC50 was greater than 100 µg/mL in [3]; 2 µM in [4] (setting [15]); 2.8 µM in series [4] (Hepatitis B virus, read-out: HBV Virion EC50); greater than 30 µM in series [6] (Hepatitis B virus). The 90% effect concentration (EC90) in [4] (Hepatitis B virus, read-out: HBV EC90) is 16 µM; in series [4] (Hepatitis B virus, read-out: HBV Virion EC90), 20 µM; in [6] (Hepatitis B virus), greater than 30 µM. In series [4], the “activity in primary assay (HBV virion)” value is given as “active”.
Consider `CCCc1cc(=O)oc2c3c(c4c(c12)OC(C)(C)C=C4)OC(C)(C)C(C)C3=O` (racemic) [(±)-15b, (±)-10,11-Dihydro-6,6,10,10,11-pentamethyl-4-propyl-2H, 6H, 12H-benzo[1,2-b:3,4-b′:5,6-b″]tripyran-2,12-dione], for which the IC50 in [7] (Homo sapiens) was greater than 50 µg/mL; in series [1] (Homo sapiens), 21 µM; in [2] (setting [14]), 307 µM; in series [9] (Homo sapiens, Fibroblast) it was 66.7 µg/mL (≈ 174 µM); in series [5], 52.3 µg/mL (≈ 137 µM). For the same compound, the concentration giving a half-maximal response (EC50) in series [8] (human gammaherpesvirus 4) was greater than 50 µg/mL; in series [3], greater than 20 µg/mL; in [10] (Human alphaherpesvirus 3, Fibroblast), greater than 20 µg/mL; in series [4] (setting [15]), greater than 10 µM.
Consider `CCCc1cc(=O)oc2c3c(c4c(c12)OC(C)(C)C=C4)OC(CC)C(C)C3=O` (racemic) [(±)-15c, (±)-10,11-trans-10,11-Dihydro-10-ethyl-4-propyl-6,6,11-trimethyl-2H,6H,12H-benzo[1,2-b:3,4-b ″]tripyran-2,12-dione], for which the “EBV IC50” value in series [7] was greater than 50 µg/mL. Moreover, the IC50 in series [1] was determined as 6.8 µM; in [2] (Table II, read-out: HBV IC50), 152 µM. The “EBV EC50” value in series [8] was greater than 50 µg/mL. The “HCMV EC50” value in [3] is greater than 20 µg/mL. Also, the “VZV IC50” value in series [9] was 68.0 µg/mL. In [10], the “VZV EC50” value was greater than 20 µg/mL. For the same compound, the 50% effective concentration (EC50) in [4] (read-out: HBV EC50, Table II) is greater than 10 µM. Besides, the “Maximum Protection (%)” value in series [11] is 47%. In addition, in series [5], the “HCMV IC50” value was 77.6 µg/mL.
With `CCCc1cc(=O)oc2c3c(c4c(c12)OC(C)(C)C=C4)OCC(C)C3=O` (racemic) [(±)-15f], the “EBV IC50” value in [7] was greater than 50 µg/mL. In addition, the IC50 in series [2] (Table II, read-out: HBV IC50) was 270 µM; in series [2] (Table IV, HBV RI columns, read-out: HBV RI IC50), 303 µM; in series [2] (Table IV, HBV Virion columns, read-out: HBV Virion IC50), 303 µM. Besides, the “EBV EC50” value in series [8] was greater than 50 µg/mL. In series [3], the “HCMV EC50” value is greater than 100 µg/mL. The “VZV IC50” value in series [9] came out at 60.0 µg/mL. Further, the “VZV EC50” value in series [10] is greater than 20 µg/mL. Also, the EC50 in series [4] (read-out: HBV EC50, Table II) was 0.67 µM; in series [4] (read-out: HBV Virion EC50, Table IV), 0.81 µM; in [6] (Table IV), 5.7 µM. For the same compound, the EC90 came out at 5 µM in series [4] (read-out: HBV Virion EC90, Table IV) and 15 µM in [6] (Table IV). Moreover, in [4], the “activity in primary assay (HBV virion)” value is listed as “active”. In addition, in series [5], the “HCMV IC50” value is greater than 100 µg/mL. The “activity in secondary assay (HBV RI)” value in series [6] (text summary of Table IV) is “active”.
For `CCCc1cc(=O)oc2c3c(c4c(c12)OC(C)(C)CC4)OC(C)C(C)C3=O` (racemic) [(±)-18a, (±)-10,11-trans4-Propyl-7,8,10,11-tetrahydro-6,6,10,11-tetramethyl-2H,6H,12H-benzo [1,2-b:3,4-b′5,6-b″]tripyran-2,12-dione], the “EBV IC50” value in series [7] was greater than 50 µg/mL. Also, the concentration for half-maximal inhibition (IC50) came to 9.19 µM in series [1] and 88 µM in [2] (Table II, read-out: HBV IC50). Also, the “EBV EC50” value in series [8] came out at 24.5 µg/mL. The “HCMV EC50” value in [3] is greater than 4.0 µg/mL. The “VZV IC50” value in series [9] stood at 33.3 µg/mL. Further, the “VZV EC50” value in [10] was found to be 15.4 µg/mL. The EC50 is greater than 10 µM in series [4] (read-out: HBV EC50, Table II) and 2.47 µM in [11]. Further, the “Maximum Protection (%)” value in [11] turned out to be 60%. For the same compound, the “HCMV IC50” value in [5] was determined as 19.5 µg/mL.
Regarding `CCCc1cc(=O)oc2c3c(c4c(c12)OC(C)(C)C=C4)O[C@H](C)[C@@H](C)[C@@H]3O` (racemic) [(±)-calanolide A, (±)-Calanolide A], the “antiviral effect (reducing viral CPE)” value in series [12] is on record as “nearly as effective as (+)-calanolide A”; in series [13] it was “effective in reducing viral CPE”.
`Cc1cn([C@H]2C[C@H](N=[N+]=[N-])[C@@H](CO)O2)c(=O)[nH]c1=O` [AZT, reference compound]: the “antiviral effect (reducing viral CPE)” value in series [12] is “sensitive to AZT”; in [13] it was “little to no effect”.
In general, melting point refers to the temperature of the solid-liquid transition. `CCCc1cc(=O)oc2c3c(c4c(c12)OC(C)(C)C=C4)OC(C)=C(C)C3O` (stereo not shown) [Compound 6, 12-hydroxy-6,6,10,11-tetramethyl-4-propyl-2H,6H,12H-benzo[1,2-b:3,4-b′:5,6-b″]tripyran-2-one] yielded a melting point of 176 to 177 °C.
